The test system of one test is p53. The test is described as follows: p21 luciferase assay (p53 inhibition) in U20S cells upon doxorubicin. It counts as cell-based. The conditions noted are these: for % Inhibition (p53 inhibition, p21 luciferase activity) / inhibition at 50 µM: compounds at 50 μM, doxorubicin-treated U20S cells; for Ability to inhibit p53-dependent p21 luciferase activity / p21 expression (SAR, words): compared with lead / ortho-methyl analogs. On the procedure: U20S Cells were transfected with p21 luciferase (1 μg) and renilla luciferase (100 ng) vectors in 6 well plate format using Fugene 6 (Roche). Briefly, total of 1.1 micrograms of vector was incubated with […] of Fugene 6 reagent for 30 min. After 3-4 hours of transfection, cell were treated with compounds for overnight, and then exposed to 300 nanogram of doxorubicin for next 24 hours. In these experiments, DMSO, transfected cells with empty vector and cell without doxorubicin were used as controls. DMSO concentration is maintained at 0.01%. Transfected cells with doxorubicin treatment were used as positive control. The luciferase activity was estimated by following the manufacturer's instruction (Promega) in a luminometer. […] The inhibitory activity (IC50) of a small molecule on p21 luciferase activity was obtained from the average of three biological replicates using PRISM software.

The next test deals with BRD4-1 (Homo sapiens, UniProt O60885). The test is described as follows: Bromodomain binding affinity (tryptophan fluorescence binding assay). On the procedure: (§1) Monitoring change of intrinsic tryptophan fluorescence of a protein induced by ligand binding can be used to determine ligand binding affinity (KD). This assay was used to assess ligand binding to the CBP BRD and ischemin binding to the BRDs from other transcription proteins as follows. The chemical ligands were prepared at 500-850 μM in the PBS buffer. Their serial dilutions by a factor of 1.5 in a 384-wells black plate were carried out using a Tecan EVO200 liquid handler down to a concentration of 0.5 nM. Protein was added to the compounds to a final concentration in each well of 5 μM. Tryptophan fluorescence of the protein was measured (with excitation set at 280 nm, emission at 350 nm) on a Tecan Safire2 reader. Inner filter correction was introduced to take into account the possible intrinsic fluorescence of the compound. […] KD was calculated based on the curve fitting.

The target of another test is BRD4-2 (Homo sapiens, UniProt O60885). The description is as above. On the procedure: as §1
The target in another test is CBP BRD (Homo sapiens, UniProt Q92793). The test is described as above. As for the experimental part: as §1
In a further test the target is T1, PCAF (Homo sapiens, UniProt Q92831).
T1 sequence (Q92831 723-827 limits assumed): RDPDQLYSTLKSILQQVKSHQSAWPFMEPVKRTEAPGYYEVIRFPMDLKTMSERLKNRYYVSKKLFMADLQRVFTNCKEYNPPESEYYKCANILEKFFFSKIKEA
The test is described as above. On the procedure: as §1

The next test relates to melanoma cells. Nature of the test: Melanoma cell proliferation in vitro. It counts as cell-based. The conditions noted are these: FIG. 6, FIG. 7.
In a further test the test system is U20S cells. Nature of the test: BRDU incorporation / cell cycle analysis. In kind it is cell-based. The conditions noted are these: for Prevention of doxorubicin-induced cell cycle arrest (decrease of BRDU incorporation): compound 50 μM, doxorubicin 5 μM, U20S cells. As for the experimental part: BRDU incorporation assay for cell cycle evaluation was performed in 96 well plates using calorimetric based kit from Calbiochem (Cat# QiA58). Hundred microliter of 1×10^5/ml cells were plated in DMEM media (Mediatech) with 10% fetal bovine serum (FBS). After 12 hours cells were treated with compounds ischemin and MS 119 (50 μM) with or without doxorubicin treatment (5 μM). The controls were DMSO and untreated cells. BRDU was added for 24 hours treatment. After 24 hours cells were fixed and treated with anti-BRDU antibody. After washings, the wells were incubated with peroxidase. After final wash, the color was developed using TMB as substrate and the reaction was stopped with stop solution and optical density was estimated at 450 nm.
DNA damage induced by doxorubicin leads to p53 stimulated cellular responses including cell cycle arrest, damage repair, and apoptosis. To determine the effect of ischemin on dividing U20S cells, U20S cells were treated with 5-bromo-2-deoxyuridine (BRDU) and the incorporated BRDU during in DNA synthesis was measured using an ELISA assay.

The next test relates to NF-κB. The test is described as follows: TNFα-induced NF-kB activation, luciferase in NF-kB response element HEK293 cells. The conditions noted are these: Homo sapiens; NF-κB-response element stabilized HEK293 cells; read-out: IC50, inhibition of TNFα-induced activation of NF-κB. In kind it is cell-based. As for the experimental part: FIG. 5. […] A. NF-kB activation by TNFa (10 ng/mL). HEK 293 cells ([…]) in a 24-well plate were stabilized with NF-kB response element (NF-kB_RE) was treated with TNF. Twenty-four hours after the treatment, the cells were harvested and lysed, and luciferase activity was determined.
Dysregulation of macrophages and T cell functions trigger inflammatory responses contributing to IBD progression. Given its pro-inflammatory functions, NF-κB inhibition has anti-inflammatory effects, as shown by inhibition of IKK activity, which prevents phoshorylation and release of IκBα from NF-κB.

Setting [1] is: Table 1, read-out: Binding Affinity, Kd BRD4-1.
The mark [2] stands for this setting: Table 1, read-out: Binding Affinity, Kd BRD4-2.
Where [3] appears, read: Table 4, read-out: BrD4-1 (μM), bromodomain binding.
The mark [4] stands for this setting: Table 4, read-out: BrD4-2 (μM), bromodomain binding.
The mark [5] stands for this setting: Table 4, read-out: CBP (μM), bromodomain binding.
The mark [6] stands for this setting: Table 4, read-out: PCAF (μM), bromodomain binding.

Where two headings read alike, the source gives them in different places.

CBP BRD, sequence (Q92793 1085-1192 limits assumed): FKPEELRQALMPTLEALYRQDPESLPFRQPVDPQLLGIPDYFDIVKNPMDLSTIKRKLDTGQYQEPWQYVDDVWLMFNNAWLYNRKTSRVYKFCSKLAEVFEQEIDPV

As to “5-(4-hydroxy-3,5-isopropyl-phenylazo)-2,4-dimethylbenzenesulfonic acid [MS128]”, the “% Inhibition (p53 inhibition, p21 luciferase activity)” value (“% Inhibition” for short) in the test on p53 is 47.2%.
Take “5-(4-hydroxy-3-methyl-5-propene-phenylazo)-2,4-methylbenzenesulfonic acid [MS130]”: the “% Inhibition” value in the test with p53 is given as 40.4%.
With `Cc1cc(C#Cc2ccc(S(=O)(=O)Nc3ccccn3)cc2)cc(C)c1O` [CM0000254], the Kd at BRD4-1 (setting [1]) is less than 1 µM; at BRD4-2 (setting [2]), 1.6 µM.
On to `Cc1cc(/C=C/c2ccc(S(=O)(=O)Nc3ccccn3)cc2)cc(C)c1O` [CM0000255], for which the Kd on BRD4-1 (setting [1]) was less than 1 µM; on BRD4-1 (setting [3]), less than 1 µM; on BRD4-2 (setting [2]), less than 1 µM; at BRD4-2 (setting [4]), less than 1 µM; on CBP BRD (Table 1, read-out: Binding Affinity, Kd CBP), 32.8 µM; at CBP BRD (setting [5]), 33 µM. For the same compound, the Kd at PCAF (Table 1, read-out: Binding Affinity, Kd PCAF) was less than 1 µM; at PCAF (setting [6]), less than 1 µM. Also, the “Inhibition of melanoma cell proliferation” value in the test with melanoma cells is “capable of inhibiting melanoma cell proliferation”.
Turning to `Cc1cc(/C=C/c2ccc(S(=O)(=O)Nc3ccccn3)cc2)c(NC(=O)OC(C)(C)C)cc1O` [CM0000278], the Kd is 1.5 µM at BRD4-1 (setting [1]) and less than 1 µM at BRD4-2 (setting [2]).
Regarding `Cc1cc(/C=C/c2ccc(S(=O)(=O)Nc3ccccn3)cc2)c(N)cc1O` [CM0000279], the Kd at BRD4-1 (setting [1]) was 2.1 µM; at BRD4-1 (setting [3]), 2 µM; at BRD4-2 (setting [2]), less than 1 µM; on BRD4-2 (setting [4]), less than 1 µM. The “Inhibition of melanoma cell proliferation” value with melanoma cells is recorded as “capable of inhibiting melanoma cell proliferation”.
As for `Cc1cc(O)cc(C)c1/N=N/c1ccc(S(=O)(=O)O)cc1` [MS100, 4-(4-hydroxy-2,6-dimethyl-phenylazo)-benzenesulfonic acid], 50 µM produced 36.4% inhibition in the test with p53.
For the compound `Cc1cc(/N=N/c2ccc(S(=O)(=O)O)cc2)c(C)cc1O` [MS101, 4-(4-hydroxy-2,5-dimethyl-phenylazo)-benzenesulfonic acid], in the test with p53, the “Ability to inhibit p53-dependent p21 luciferase activity / p21 expression (SAR, words)” value is listed as “marked increase” and the inhibition at 50 µM stood at 82.9%.
In the case of `Cc1cc(/N=N/c2ccc(S(=O)(=O)O)cc2)c(C)c(C)c1O` [MS103, 4-(4-hydroxy-2,3,5-trimethyl-phenylazo)-benzenesulfonic acid], the inhibition at 50 µM in the test on p53 was determined as 38.9%.
`CC(C)c1cc(N=Nc2ccc(S(=O)(=O)O)cc2)cc(C(C)C)c1O` [MS105, 4-(4-hydroxy-3,5-diisopropyl-phenylazo)-benzenesulfonic acid]: in the test on p53, the “Ability to inhibit p53-dependent p21 luciferase activity / p21 expression (SAR, words)” value is on record as “reduced activity” and at 50 µM the inhibition was 26.4%.
Regarding `Cc1cc(C)c(S(=O)(=O)O)cc1/N=N/c1cc(C)c(O)c(C)c1` [MS109, 5-(3,5-dimethyl-4-hydroxyphenylazo)-2,4-dimethylbenzenesulfonic acid], 50 µM produced 60.1% inhibition with p53.
As to `Cc1cc(N=Nc2ccc(S(=O)(=O)O)cc2)cc(C(C)(C)C)c1O` [MS111, 4-(4-hydroxy-3-t-butyl-5-methyl-phenylazo)-benzenesulfonic acid], in the test on p53, the “Ability to inhibit p53-dependent p21 luciferase activity / p21 expression (SAR, words)” value was “reduced activity” and 50 µM produced 22.8% inhibition.
The like results for `CCc1cc(/N=N/c2ccc(S(=O)(=O)O)cc2)ccc1O` [MS113, 4-(4-hydroxy-3-ethyl-phenylazo)-benzenesulfonic acid] were, in that order, “reduced activity” and 25.7%.
Compound `Cc1cc(/N=N/c2cc(S(=O)(=O)O)c(C)cc2C)c(C)cc1O` [MS118] registered an inhibition at 50 µM in the test with p53 of 49.7%.
`Cc1cc(C)c(S(=O)(=O)O)cc1/N=N/c1c(C)cc(O)cc1C` [MS119, 5-(2,6-dimethyl-4-hydroxyphenylazo)-2,4-dimethylbenzenesulfonic acid]: the “Inhibition of p21 luciferase activity” value in the test with p53 (U20S cells, FIG. 1A) is reported as “Dose-dependent inhibition”. The compound further showed an inhibition at 50 µM with p53 of 54%. Moreover, the “Prevention of doxorubicin-induced cell cycle arrest (decrease of BRDU incorporation)” value in the test on U20S cells is reported as “prevents a doxorubicin-induced decrease of BRDU incorporation”; in the test with U20S cells (listed as MS 119) it was “almost completely prevented”.
Regarding `CCc1cc(/N=N/c2cc(S(=O)(=O)O)c(C)cc2C)ccc1O` [MS124, 5-(3-ethyl-4-hydroxyphenylazo)-2,4-dimethylbenzenesulfonic acid], 50 µM produced 25% inhibition in the test on p53.
The same measure, in the same setting: to `CCCc1cc(N=Nc2cc(S(=O)(=O)O)c(C)cc2C)ccc1O` [MS126, 5-(4-hydroxy-3-propyl-phenylazo)-2,4-dimethylbenzenesulfonic acid] belongs 93.5%.
`CCC(=O)c1cc(N=Nc2cc(S(=O)(=O)O)c(C)cc2C)ccc1O` [MS127, 5-(4-hydroxyphenylazo-3-(1-propanone))-2,4-dimethylbenzenesulfonic acid]: the “% Inhibition” value with p53 is 86.8%.
In turn, `Cc1cc(C)c(S(=O)(=O)O)cc1N=Nc1cc(C)c(O)c(C(C)C)c1` [MS129, 5-(4-hydroxy-3-isopropyl-5-methyl-phenylazo)-2,4-dimethylbenzenesulfonic acid] had an inhibition at 50 µM with p53 of 44.6%.
Compound `Cc1cc(C)c(S(=O)(=O)O)cc1/N=N/c1ccc(O)c(Cl)c1` [MS131, 5-(3-chloro-4-hydroxyphenylazo)-2,4-dimethylbenzenesulfonic acid] gave an inhibition at 50 µM in the test with p53 of 49.7%.
On the same count and under the same terms, next, `Cc1cc(O)c(N)cc1/N=N/c1cc(S(=O)(=O)O)c(C)cc1C` [MS135]: 54.8%.
Regarding `Cc1cc(C)c(S(=O)(=O)O)cc1/N=N/c1cc(C)c(O)c(C)c1C` [MS146, 5-(2,3,5-trimethyl-4-hydroxyphenylazo)-2,4-dimethylbenzenesulfonic acid], testing at 50 µM in the test on p53 gave an inhibition of 30.8%.
As to `Cc1cc(O)cc(C)c1/N=N/c1cc(Cl)c(O)c(S(=O)(=O)O)c1` [MS153], 50 µM produced 39% inhibition in the test with p53.
In the case of `Cc1cc(/N=N/c2ccc(S(=O)(=O)O)cc2)ccc1O` [MS450], in the test on p53, the “Ability to inhibit p53-dependent p21 luciferase activity / p21 expression (SAR, words)” value is “marked increase” and 50 µM produced 85.6% inhibition.
Regarding `Cc1cc(/N=N/c2ccc(S(=O)(=O)O)cc2)cc(C)c1O` [MS451], in the test with p53, the “Ability to inhibit p53-dependent p21 luciferase activity / p21 expression (SAR, words)” value is “marked increase” and testing at 50 µM gave an inhibition of 87.4%.
Regarding `Cc1cc(NNc2ccc(S(=O)(=O)NCc3ccc(C(F)(F)F)cc3)cc2)c(N)cc1O` [MS0129433], the Kd on BRD4-1 (Table 5, read-out: BrD4-1) was 4.5 µM; on BRD4-2 (Table 5, read-out: BrD4-2) it was 21 µM; on CBP BRD (Table 5, read-out: CBP), more than 100 µM; on PCAF (Table 5, read-out: PCAF) it was more than 100 µM. In addition, the IC50 in the test with NF-κB was 57 nM.
For `Cc1cc(/N=N/c2ccc(S(=O)(=O)Nc3ccccn3)cc2)cc(C)c1O` [MS0129435], the Kd on BRD4-1 (setting [3]) was 1.3 µM; at BRD4-2 (setting [4]) it was 2.4 µM; on CBP BRD (setting [5]) it was more than 100 µM; on PCAF (setting [6]), 4.5 µM.
With `COc1cccc2c1C(=O)c1c(O)c3c(c(O)c1C2=O)C[C@@](O)(C(=O)CO)C[C@@H]3O[C@H]1C[C@H](N)[C@H](O)[C@H](C)O1` [doxorubicin, reference compound], the “Decrease of BRDU incorporation” value in the test on U20S cells (doxorubicin treatment of U20S cells) was determined as 45%.

For the origin of these results see US20140066410A1, “INHIBITORS OF BROMODOMAINS AS MODULATORS OF GENE EXPRESSION” (ICAHN SCHOOL OF MEDICINE AT MOUNT SINAI, priority 2011, published 2014).
